Assay [1] has as its target T1, Plasminogen (Homo sapiens, UniProt P00747). Kind of assay: Inhibition of plasmin.
For assay [2], the target named is T2, Plasma kallikrein (Homo sapiens, UniProt P03952). In words: Inhibition of plasma kallikrein at 1000 uM.
In assay [3] the target is Urokinase-type plasminogen activator (Homo sapiens) (UniProt P00749). Kind of assay: Inhibition of urokinase at 1000 uM.
Assay [4] has as its target T2, Plasma kallikrein. In words: Inhibition of plasma kallikrein.
The target of assay [5] is Urokinase-type plasminogen activator (Homo sapiens) (UniProt P00749). In words: Inhibition of urokinase at 500 uM.
For assay [6] the target is unchanged. In words: Inhibition of urokinase at 400 uM.
Assay [7] has as its target T1, Plasminogen. In words: Inhibition of plasmin at 250 uM.
For assay [8], the target named is T2, Plasma kallikrein. In words: Inhibition of plasma kallikrein at 250 uM.
Assay [9] deals with Urokinase-type plasminogen activator (Homo sapiens) (UniProt P00749). Kind of assay: Inhibition of urokinase at 200 uM.

T2 sequence (P03952 20-390 limits assumed): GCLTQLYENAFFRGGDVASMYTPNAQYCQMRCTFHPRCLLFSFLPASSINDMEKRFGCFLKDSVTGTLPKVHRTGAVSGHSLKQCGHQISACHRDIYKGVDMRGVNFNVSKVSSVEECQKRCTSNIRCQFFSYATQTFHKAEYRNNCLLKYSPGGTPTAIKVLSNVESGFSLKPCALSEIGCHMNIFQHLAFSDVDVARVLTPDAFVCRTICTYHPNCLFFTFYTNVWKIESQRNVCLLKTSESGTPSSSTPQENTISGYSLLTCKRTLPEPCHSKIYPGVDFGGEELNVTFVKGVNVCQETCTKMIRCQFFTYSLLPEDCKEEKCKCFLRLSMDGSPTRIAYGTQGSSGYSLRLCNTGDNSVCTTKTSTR
T2 sequence (P03952 391-638 limits assumed): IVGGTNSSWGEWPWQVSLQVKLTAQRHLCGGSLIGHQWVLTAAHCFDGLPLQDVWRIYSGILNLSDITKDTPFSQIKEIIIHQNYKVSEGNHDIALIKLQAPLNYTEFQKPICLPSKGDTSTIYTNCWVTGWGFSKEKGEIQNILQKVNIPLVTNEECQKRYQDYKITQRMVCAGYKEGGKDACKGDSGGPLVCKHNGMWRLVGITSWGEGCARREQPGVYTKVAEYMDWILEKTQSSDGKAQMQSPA
T1 sequence (P00747 97-580 limits assumed): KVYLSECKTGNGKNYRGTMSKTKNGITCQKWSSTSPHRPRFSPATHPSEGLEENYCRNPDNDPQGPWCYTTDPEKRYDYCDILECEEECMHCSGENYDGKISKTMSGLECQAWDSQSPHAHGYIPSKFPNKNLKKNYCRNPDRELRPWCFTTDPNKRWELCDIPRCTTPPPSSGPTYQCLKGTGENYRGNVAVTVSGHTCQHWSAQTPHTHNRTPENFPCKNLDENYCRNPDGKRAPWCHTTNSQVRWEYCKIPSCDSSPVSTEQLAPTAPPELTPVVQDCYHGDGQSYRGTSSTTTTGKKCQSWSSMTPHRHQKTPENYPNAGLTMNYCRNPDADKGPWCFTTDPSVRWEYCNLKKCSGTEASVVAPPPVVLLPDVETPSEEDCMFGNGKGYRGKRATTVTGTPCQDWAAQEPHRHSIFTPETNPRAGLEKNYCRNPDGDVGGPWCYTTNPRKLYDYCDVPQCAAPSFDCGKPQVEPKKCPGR
T1 sequence (P00747 581-810 limits assumed): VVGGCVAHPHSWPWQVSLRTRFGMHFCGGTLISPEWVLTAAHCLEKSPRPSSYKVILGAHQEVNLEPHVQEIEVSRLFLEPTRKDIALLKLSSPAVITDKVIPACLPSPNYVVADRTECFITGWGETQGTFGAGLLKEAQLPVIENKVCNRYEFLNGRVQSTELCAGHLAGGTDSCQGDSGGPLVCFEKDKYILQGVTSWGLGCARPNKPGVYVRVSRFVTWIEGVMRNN

On Plasminogen [1], `N#C[C@H](CCCCN)NC(=O)c1ccc(OCc2ccncc2)cc1` showed an IC50 of 240 µM. The values for the inhibition (on Plasma kallikrein [2]; in assay [3]) were 45% and 16%, respectively.

`N#C[C@H](CCCCN)NC(=O)c1ccc(OCc2ccncc2)c(NC(=O)Cc2ccc3ccccc3c2)c1`: the values for the IC50 at Plasminogen [1] and against Plasma kallikrein [4] were 220 µM and 380 µM, respectively. Moreover, the inhibition in [5] is 20%.

`CC[C@@H](C)[C@@H](N)C(=O)N[C@@H](Cc1ccccc1)C(=O)N[C@@H](CCCCN)C(N)=O` yielded an IC50 against Plasminogen [1] of 290 µM. Moreover, the inhibition (at Plasma kallikrein [2]; in assay [3]) was 0% each time.

The compound `N#C[C@H](CCCCN)NC(=O)c1ccc(OCc2ccncc2)c(NC(=O)CCc2cn(Cc3ccc(F)cc3)c3ccccc23)c1` gave an IC50 on Plasminogen [1] of 140 µM. Also, the inhibition (on Plasma kallikrein [2]; in [6]) was 0% in each case.

For `COc1ccc(C(=O)N[C@H](C#N)CCCCN)cc1NC(=O)CCc1cn(Cc2ccc(F)cc2)c2ccccc12`, the inhibition against Plasminogen [7] is 0%; against Plasma kallikrein [8] it was 22%; in [9] it was 0%.

Turning to `CC(C)(C)OC(=O)n1cc(CCC(=O)Nc2cc(C(=O)N[C@H](C#N)CCCCN)ccc2OCc2ccncc2)c2ccccc21`, the half-inhibitory concentration (IC50) on Plasminogen [1] came out at 220 µM; against Plasma kallikrein [4], 910 µM. For the same compound, the inhibition in assay [9] came to 0%.

With `N#C[C@H](CCCCN)NC(=O)c1ccc(OCc2ccncc2)c(NC(=O)Cc2ccc(F)cc2)c1`, on Plasminogen [1], the IC50 is 590 µM. Also, the values for the inhibition (against Plasma kallikrein [2]; in assay [3]) were 11% and 19%, respectively.

`CC[C@@H](C)[C@@H](N)C(=O)N[C@@H](Cc1ccccc1)C(=O)N[C@H](C#N)CCCCN` came in with an IC50 on Plasminogen [1] of 78 µM. The inhibition is 38% at Plasma kallikrein [2] and 15% in [3].

For the compound `N#C[C@H](CCCCN)NC(=O)c1ccc(OCc2ccncc2)c(NC(=O)Cc2cccc3ccccc23)c1`, the IC50 at Plasminogen [1] is 570 µM; against Plasma kallikrein [4], 680 µM. Moreover, in assay [5], the inhibition came to 16%.

As for `N#C[C@H](CCCCN)NC(=O)c1ccc(OCc2ccncc2)c(NC(=O)CCc2c[nH]c3ccccc23)c1`, at Plasminogen [1], the concentration for half-maximal inhibition (IC50) was 370 µM. Moreover, the inhibition at Plasma kallikrein [2] was determined as 44%; in [9], 0%.

These data come from ChEMBL document CHEMBL1909593, “Identification of novel plasmin inhibitors possessing nitrile moiety as warhead” (Bioorg Med Chem Lett, 2011).
